# Source: patent publication US9686984B2, “Macrocyclic picolinamides as fungicides” (DOW AGROSCIENCES LLC, priority 2014, dated 2017)
# Like-named read-outs stand apart in the source and are kept apart here.
# Assays:
# Assay type in all cases: in vivo
# [1] = system: Puccinia triticina; experiment: Wheat Brown Rust (PUCCRT) disease control on wheat seedlings; details: for pest or weed control at 121.5 g/ha: Low Volume (121.5 g/H); for pest or weed control at 100 µg/mL: High Volume (100 ppm)
# Summary of the method: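 Yuma wheat seedlings at the first-leaf stage sprayed to run-off (acetone solution in nine volumes of water, 110 ppm Triton X-100) or track-sprayed as EC with 0.1% Trycol 5941. Inoculation with P. triticina before or after treatment, then overnight dark dew at 22° C., 100% RH, then a 24° C. greenhouse. Percent control from severity vs untreated.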
# [2] = system: Alternaria solani; experiment: Tomato Early Blight (ALTESO) disease control; details: 100 ppm, 1 Day Protectant
# Protocol: Technical grades of materials were dissolved in acetone, which were then mixed with nine volumes of water containing 110 ppm Triton X-100. The fungicide solutions were applied onto wheat seedlings using an automated booth sprayer to run-off. All sprayed plants were allowed to air dry prior to further handling. All fungicides were evaluated using the aforementioned method for their activity vs. all target diseases, unless stated otherwise. Wheat leaf blotch and brown rust activity were also evaluated using track spray applications, in which case the fungicides were formulated as EC formulations, containing 0.1% Trycol 5941 in the spray solutions. Wheat plants (variety Yuma) were grown from seed in a greenhouse in 50% mineral soil/50% soil-less Metro mix until the first leaf was fully emerged, with 7-10 seedlings per pot. These plants were inoculated with an aqueous spore suspension of Septoria tritici either prior to or after fungicide treatments. After inoculation the plants were kept in 100% relative humidity (one day in a dark dew chamber followed by two to three days in a lighted dew chamber at 20° C.) to permit spores to germinate and infect the leaf. The plants were then transferred to a greenhouse set at 20° C. for disease to develop. When disease symptoms were fully expressed on the 1st leaves of untreated plants, infection levels were assessed on a scale of 0 to 100 percent disease severity. Percent disease control was calculated using the ratio of disease severity on treated plants relative to untreated plants. Example M: Evaluation of Fungicidal Activity: Tomato Early Blight (Alternaria solani; Bayer Code […]) Tomato plants (variety Outdoor Girl) were propagated in soil-less Metro mix, with each pot having one plant, and used when 12 to 14 days old. Test plants were inoculated with an aqueous spore suspension of Alternaria solani 24 hr after fungicide treatments. […]
# [3] = system: Glomerella lagenarium; experiment: Cucumber Anthracnose (COLLLA) disease control; details: 100 ppm, 1 Day Protectant
# Protocol: Technical grades of materials were dissolved in acetone, which were then mixed with nine volumes of water containing 110 ppm Triton X-100. The fungicide solutions were applied onto wheat seedlings using an automated booth sprayer to run-off. All sprayed plants were allowed to air dry prior to further handling. All fungicides were evaluated using the aforementioned method for their activity vs. all target diseases, unless stated otherwise. Wheat leaf blotch and brown rust activity were also evaluated using track spray applications, in which case the fungicides were formulated as EC formulations, containing 0.1% Trycol 5941 in the spray solutions. Wheat plants (variety Yuma) were grown from seed in a greenhouse in 50% mineral soil/50% soil-less Metro mix until the first leaf was fully emerged, with 7-10 seedlings per pot. These plants were inoculated with an aqueous spore suspension of Septoria tritici either prior to or after fungicide treatments. After inoculation the plants were kept in 100% relative humidity (one day in a dark dew chamber followed by two to three days in a lighted dew chamber at 20° C.) to permit spores to germinate and infect the leaf. The plants were then transferred to a greenhouse set at 20° C. for disease to develop. When disease symptoms were fully expressed on the 1st leaves of untreated plants, infection levels were assessed on a scale of 0 to 100 percent disease severity. Percent disease control was calculated using the ratio of disease severity on treated plants relative to untreated plants. Example N: Evaluation of Fungicidal Activity: Cucumber Anthracnose (Glomerella lagenarium; Anamorph: Colletotrichum lagenarium; Bayer Code COLLLA) Cucumber seedlings (variety Bush Pickle) were propagated in soil-less Metro mix, with each pot having one plant, and used in the test when 12 to 14 days old. Test plants were inoculated with an aqueous spore suspension of Colletotrichum lagenarium 24 hr after fungicide treatments. […]
# [4] = 24 h, 1 Day Protectant, read-out: PUCCRT disease control, 1 DP
# [5] = 72 h, 3 Day Curative, read-out: PUCCRT disease control, 3 DC
Compound,"pest or weed control at 121.5 g/ha [1, 4]","pest or weed control at 121.5 g/ha [1, 5]","ALTESO disease control, 1DP [2]","COLLLA disease control, 1DP [3]","pest or weed control at 100 µg/mL [1, 4]","pest or weed control at 100 µg/mL [1, 5]"
CCCC[C@H]1OCC[C@H](NC(=O)c2nccc(OC)c2OC(C)=O)C(=O)O[C@@H](C)[C@@H]1Cc1ccccc1 [Compound 2],> 70%,> 70%,B (≦70),A (>70),,
COc1ccnc(C(=O)N[C@H]2CCO[C@H](Cc3ccccc3)[C@@H](Cc3ccccc3)[C@H](C)OC2=O)c1OC(C)=O [Compound 3],> 70%,> 70%,B (≦70),A (>70),,
CCC[C@H]1OCC[C@H](NC(=O)c2nccc(OC)c2OCOC(C)=O)C(=O)O[C@@H](C)[C@@H]1Cc1ccccc1 [Compound 17],> 70%,> 70%,B (≦70),A (>70),> 70%,> 70%
